# According to ChEMBL document CHEMBL4261632, “Synthesis of five libraries of 6,5-fused heterocycles to establish the importance of the heterocyclic core for antiplasmodial activity” (Bioorg Med Chem, 2018):
# System: Plasmodium falciparum
# Test: Antiplasmodial activity against chloroquine-sensitive Plasmodium falciparum NF54
# Format: functional, organism-based
# Settings: not given; call rule not given here
row,EC50,Structure (SMILES)
1,Not Active,Cl.O=C(OCc1cccc2ccccc12)c1nc2c(OC3CCNCC3)cccc2o1
2,Not Active,Cl.O=C(OCCc1ccccc1)c1nc2c(OC3CCNCC3)cccc2o1
3,Not Active,Cl.O=C(NCc1ccccc1)c1nc2c(OC3CCNCC3)cccc2o1
4,Not Active,Cl.O=C(OCc1ccccc1)c1nc2c(OC3CCNCC3)cccc2o1
5,Not Active,Cl.O=C(NCCc1ccccc1)c1nc2c(OC3CCNCC3)cccc2o1

# Same assay, conditions: Plasmodium falciparum, NF54; read-out: EC50
row,Structure (SMILES),EC50
1,O=C(NCc1ccccc1)c1cc2c(OC3CCNCC3)cccc2[nH]1,3.74 µM
2,Cn1c(C(=O)OCc2cccc3ccccc23)nc2cccc(OC3CCNCC3)c21,7.37 µM
3,O=C(NCc1ccccc1)c1cc2c(OC3CCNCC3)cccc2s1,3.48 µM
4,O=C(OCCc1ccccc1)c1cc2c(OC3CCNCC3)cccc2[nH]1,6.53 µM
5,Cn1c(C(=O)NCc2ccccc2)nc2cccc(OC3CCNCC3)c21,8.8 µM
6,Cc1c(C(=O)NCCc2ccccc2)[nH]c2cccc(OC3CCNCC3)c12,3.4 µM
7,Cc1c(C(=O)NCc2ccccc2)[nH]c2cccc(OC3CCNCC3)c12,6.11 µM
8,O=C(OCCc1ccccc1)c1cc2c(OC3CCNCC3)cccc2s1,5.87 µM
9,O=C(OCc1ccccc1)c1cc2c(OC3CCNCC3)cccc2s1,5.69 µM
10,CCN(CC)CCCC(C)Nc1ccnc2cc(Cl)ccc12 (configuration not stated) [CHLOROQUINE],0.013 µM
11,Cn1c(C(=O)OCc2ccccc2)nc2cccc(OC3CCNCC3)c21,13.3 µM
12,Cn1c(C(=O)NCCc2ccccc2)nc2cccc(OC3CCNCC3)c21,8.69 µM
13,Cc1c(C(=O)OCCc2ccccc2)[nH]c2cccc(OC3CCNCC3)c12,3.9 µM
14,Cn1c(C(=O)OCCc2ccccc2)nc2cccc(OC3CCNCC3)c21,11.1 µM

# Next, values leading:
row,EC50,Structure (SMILES)
1,3.39 µM,O=C(OCc1ccccc1)c1cc2c(OC3CCNCC3)cccc2[nH]1
2,1.96 µM,O=C(NCc1cccc2ccccc12)c1nc2c(OC3CCNCC3)cccc2o1
3,0.9 µM,O=C(NCc1cccc2ccccc12)c1cc2c(OC3CCNCC3)cccc2[nH]1
4,0.83 µM,O=C(OCc1cccc2ccccc12)c1cc2c(OC3CCNCC3)cccc2[nH]1
5,3.01 µM,O=C(NCCc1ccccc1)c1cc2c(OC3CCNCC3)cccc2s1
6,1.15 µM,Cn1c(C(=O)NCc2cccc3ccccc23)nc2cccc(OC3CCNCC3)c21
7,0.74 µM,Cc1c(C(=O)OCc2cccc3ccccc23)[nH]c2cccc(OC3CCNCC3)c12
8,0.00941 µM,C[C@H]1[C@H](OC(=O)CCC(=O)O)O[C@@H]2O[C@@]3(C)CC[C@H]4[C@H](C)CC[C@@H]1[C@@]24OO3 [ARTESUNATE]
9,3.1 µM,O=C(NCCc1ccccc1)c1cc2c(OC3CCNCC3)cccc2[nH]1
10,1.9 µM,O=C(OCc1cccc2ccccc12)c1cc2c(OC3CCNCC3)cccc2s1
11,0.74 µM,Cc1c(C(=O)NCc2cccc3ccccc23)[nH]c2cccc(OC3CCNCC3)c12
12,0.56 µM,Cc1c(C(=O)OCc2ccccc2)[nH]c2cccc(OC3CCNCC3)c12
13,0.71 µM,O=C(NCc1cccc2ccccc12)c1cc2c(OC3CCNCC3)cccc2s1
